This note sets out measurements from the RepoRT retention time repository.

The series is described as follows: A: acetonitrile + 0.1% formic acid + 10 mM ammonium formate; B: 5% water + 95% acetonitrile + 0.1% formic acid + 10 mM ammonium formate; gradient (min/%B) 0/10 2/10 22/100 27/100 27.1/10. Conditions: stereoisomer not certain.

With `C=CC1CN2CCC1CC2C(O)c1ccnc2ccccc12` (stereo unspecified) [Cinchonidine], the LC retention time amounted to 2.2 min.

As for `NCCCC(=O)O` [gamma-Aminobutyric acid], the LC retention time is 5.83 min.

As for `OCC1OC(OC2C(CO)OC(OC3C(CO)OC(O)C(O)C3O)C(O)C2O)C(O)C(O)C1O` (stereo unspecified) [Maltotriose], the LC retention time was 7.44 min.

Turning to `O=c1ccc2cc(OC3OC(CO)C(O)C(O)C3O)c(O)cc2o1` (stereo unspecified) [Esculin], the LC retention time was 2.52 min.

With `Nc1ncnc2c1ncn2C1CC(O)C(CO)O1` (stereo unspecified) [2'-Deoxyadenosine], the LC retention time is 1.39 min.

Consider `CS(=N)(=O)CC[C@H](N)C(=O)O` (stereo partly drawn) [(2S)-2-Amino-4-(S-methylsulfonimidoyl)butanoic acid], for which the LC retention time was found to be 6.69 min.

For `O=c1[nH]c(=O)c2cn[nH]c2[nH]1` [Oxipurinol], the LC retention time came out at 1.88 min.

In the case of `O=C(O)C1CCCCN1` (stereo not drawn) [L(-)-Pipecolinic acid], the LC retention time stood at 5.85 min.

Consider `CC1(C)SC2C(NC(=O)C(N)c3ccc(O)cc3)C(=O)N2C1C(=O)O` (stereo unspecified) [Amoxicillin], for which the LC retention time was found to be 5.79 min.

With `CC(C)NCC(O)COc1cccc2ccccc12` (racemic) [(+/-)-Propranolol], the LC retention time amounted to 1.21 min.

Consider `O=c1cc(-c2ccc(O)cc2)oc2cc(O)cc(O)c12` [Apigenin], for which the LC retention time was 0.481 min.

For the compound `NC(=O)Cc1c[nH]c2ccccc12` [Indole-3-acetamide], the LC retention time was 0.475 min.

For `NC(CCC(=O)NC(CS)C(=O)NCC(=O)O)C(=O)O` [L-Glutathione reduced], the LC retention time was 7.03 min.

For `NC(=O)C[C@H](N)C(=O)O` [L-Asparagine], the LC retention time stood at 6.65 min.

For `CCCC(=O)OCC(COC(=O)CCC)OC(=O)CCC` [Glycerol Tributyrate], the LC retention time came out at 0.412 min.

Turning to `COc1cc(C=CC(=O)O)cc(OC)c1O` [Sinapic acid], the LC retention time worked out at 0.561 min.

In the case of `NCCCCC(=O)O` [5-Aminovaleric acid], the LC retention time came out at 5.83 min.

In the case of `CC(C)C[C@H](NC(=O)CN)C(=O)O` [Glycyl-L-leucine], the LC retention time turned out to be 5.81 min.

For `CCCC[C@H](N)C(=O)O` [L-Norleucine], the LC retention time was found to be 4.99 min.

As to `C[N+](C)(C)CCOP(=O)(O)OP(=O)([O-])OCC1OC(n2ccc(N)nc2=O)C(O)C1O` (stereo unspecified) [Citicoline], the LC retention time was 8.51 min.

Turning to `Cn1c(=O)[nH]c2[nH]c(=O)[nH]c2c1=O` [1-Methyluric acid], the LC retention time is 3.32 min.

Consider `c1coc(Cn2cccc2)c1` [1-Furfurylpyrrole], for which the LC retention time was 0.425 min.

For `O=C(O)c1ccncc1` [Isonicotinic acid], the LC retention time came to 3.05 min.

With `O=C(O)Cc1ccccc1Nc1c(Cl)cccc1Cl` [Diclofenac acid], the LC retention time was determined as 0.456 min.

Consider `COc1ccc2nc(S(=O)Cc3ncc(C)c(OC)c3C)[nH]c2c1` (stereo unspecified) [Omeprazole], for which the LC retention time amounted to 0.484 min.

Regarding `CCCC(=O)Nc1ccc(OCC(O)CNC(C)C)c(C(C)=O)c1` (stereo unspecified) [Acebutolol], the LC retention time is 2.28 min.

Take `CCC(C)C(=O)OC1CC(C)C=C2C=CC(C)C(CCC3CC(O)CC(=O)O3)C21` (stereo unspecified) [Lovastatin]: the LC retention time was found to be 0.419 min.

With `NC(N)=NCCC[C@H](N)C(=O)O` [L-Arginine], the LC retention time is 7.48 min.

As for `OCC1OC(OCC2OC(OC3(CO)OC(CO)C(O)C3O)C(O)C(O)C2O)C(O)C(O)C1O` [D-(+)-Raffinose], the LC retention time was 7.42 min.

`N[C@@H](Cc1cnc[nH]1)C(=O)O` [L-Histidine]: the LC retention time was 7.73 min.

On to `CSCC[C@H](NC(C)=O)C(=O)O` [N-Acetyl-L-methionine], for which the LC retention time is 1.97 min.

In the case of `C[N+](C)(C)CCOP(=O)([O-])OCC(O)CO` (stereo unspecified) [sn-glycero-3-Phosphocholine], the LC retention time stood at 7.21 min.

As to `CC(C(=O)O)c1cccc(C(=O)c2ccccc2)c1` (stereo unspecified) [Ketoprofen], the LC retention time stood at 0.455 min.

Regarding `CCN(Cc1cccc(S(=O)(=O)O)c1)c1ccc(C(=C2C=CC(=[N+](CC)Cc3cccc(S(=O)(=O)O)c3)C=C2)c2ccccc2S(=O)(=O)[O-])cc1` [Erioglaucine], the LC retention time turned out to be 4.34 min.

On to `CN(C)CCC=C1c2ccccc2COc2ccccc21` [Doxepin], for which the LC retention time was found to be 1.04 min.

As to `N[C@@H](Cc1ccccc1)C(=O)O` [L-Phenylalanine], the LC retention time amounted to 4.83 min.

Take `CC12CCC(=O)C=C1CCC1C2CCC2(C)C1CCC2(O)C(=O)CO` (stereo unspecified) [Cortexolone]: the LC retention time was determined as 0.459 min.

Consider `CC(C)[C@H](N)C(=O)O` [L-Valine], for which the LC retention time came out at 5.92 min.

For `O=c1[nH]cnc2nc[nH]c12` [Hypoxanthine], the LC retention time was 2.29 min.

Take `CNC(=C[N+](=O)[O-])NCCSCc1csc(CN(C)C)n1` [Nizatidine]: the LC retention time stood at 3.03 min.

As to `NC(=O)NCCC[C@H](N)C(=O)O` [L-Citrulline], the LC retention time was 6.76 min.

Take `Cc1cnc(C(=O)NCCc2ccc(S(=O)(=O)NC(=O)NC3CCCCC3)cc2)cn1` [Glipizide]: the LC retention time is 0.463 min.

For `CCOC(=O)CC(C)=O` [Ethyl acetoacetate], the LC retention time is 0.418 min.

Consider `O=C(O)C=Cc1cnc[nH]1` [Urocanic acid], for which the LC retention time was found to be 1.89 min.

For `CCN(CC)CCOc1ccc(C(=C(Cl)c2ccccc2)c2ccccc2)cc1` [Clomiphene], the LC retention time was 0.799 min.

Turning to `Cc1c[nH]c2ccccc12` [3-Methylindole], the LC retention time came out at 0.412 min.

`CNC(CC(C)C)C(=O)NC1C(=O)NC(CC(N)=O)C(=O)NC2C(=O)NC3C(=O)NC(C(=O)NC(C(=O)O)c4cc(O)cc(O)c4-c4cc3ccc4O)C(O)c3ccc(c(Cl)c3)Oc3cc2cc(c3OC2OC(CO)C(O)C(O)C2OC2CC(C)(N)C(O)C(C)O2)Oc2ccc(cc2Cl)C1O` (stereo unspecified) [Vancomycin]: the LC retention time was 8.2 min.

For `CCC(C)C(=O)NCC(=O)O` (stereo unspecified) [2-Methylbutyrylglycine], the LC retention time worked out at 1.55 min.

Consider `NC(CCSCC(N)C(=O)O)C(=O)O` (stereo unspecified) [Cystathionine], for which the LC retention time stood at 8.01 min.

Consider `Fc1ccc(C2CCNCC2COc2ccc3c(c2)OCO3)cc1` (stereo unspecified) [Paroxetine], for which the LC retention time is 1.19 min.

For `O=C(O)Cc1c[nH]c2ccc(O)cc12` [5-Hydroxyindole-3-acetic acid], the LC retention time was found to be 0.651 min.

On to `Nc1nc2ncc(CNc3ccc(C(=O)NC(CCC(=O)O)C(=O)O)cc3)nc2c(=O)[nH]1` (stereo unspecified) [Folic acid], for which the LC retention time was 5.87 min.

Take `CC(C)C(N)CC(=O)O` (racemic) [DL-beta-Leucine]: the LC retention time was 5.29 min.

In the case of `O=C(O)CNC(=O)c1cccnc1` [Nicotinuric acid], the LC retention time stood at 5.19 min.

`NCCS(=O)(=O)O` [Taurine]: the LC retention time came to 5.82 min.

Turning to `O=C(O)C=CCCCCCCCCC(=O)O` [Traumatic acid], the LC retention time stood at 0.561 min.

As to `O=C(O)CNC(=O)CCc1ccccc1` [N-(3-Phenylpropionyl)glycine], the LC retention time came out at 1.25 min.

With `CC(=O)N[C@@H](CCCN=C(N)N)C(=O)O` [N-Acetyl-L-arginine], the LC retention time is 6.21 min.

Take `CN[C@@H](CCC(=O)O)C(=O)O` [N-Methyl-L-glutamic acid]: the LC retention time was found to be 6.54 min.

For `O=c1c(-c2ccc(O)cc2)coc2cc(O)ccc12` [Daidzein], the LC retention time amounted to 0.473 min.

Turning to `O=C(CO)COP(=O)(O)O` [Dihydroxyacetone phosphate], the LC retention time was determined as 6.59 min.

`O=c1ccn(C2CC(O)C(CO)O2)c(=O)[nH]1` (stereo unspecified) [2'-Deoxyuridine]: the LC retention time is 1.23 min.

In the case of `NC(=O)NC1NC(=O)NC1=O` (stereo unspecified) [Allantoin], the LC retention time worked out at 3.1 min.

On to `O=Cc1ccc(O)cc1` [4-Hydroxybenzaldehyde], for which the LC retention time stood at 3.98 min.

Turning to `O=C(c1ccc(OCCN2CCCCC2)cc1)c1c(-c2ccc(O)cc2)sc2cc(O)ccc12` [Raloxifene], the LC retention time was 1.42 min.

On to `Cn1c(=O)c2[nH]cnc2n(C)c1=O` [Theophylline], for which the LC retention time stood at 0.596 min.

For the compound `O=c1[nH]c(=O)c2[nH]cnc2[nH]1` [Xanthine], the LC retention time was found to be 2.92 min.

In the case of `CN1CC(=O)N2C(Cc3c([nH]c4ccccc34)C2c2ccc3c(c2)OCO3)C1=O` (stereo unspecified) [Tadalafil], the LC retention time is 0.457 min.

As to `Cn1cncc1C[C@H](N)C(=O)O` [3-Methyl-L-histidine], the LC retention time came to 7.74 min.

Regarding `Nc1nc2c(ncn2C2OC(COP(=O)(O)O)C(O)C2O)c(=O)[nH]1` (stereo unspecified) [Guanosine 5'-monophosphate], the LC retention time was determined as 7.36 min.

With `Nc1ccc(S(=O)(=O)c2ccc(N)cc2)cc1` [4,4'-Diaminodiphenyl sulfone], the LC retention time is 0.441 min.

For `CCCc1nc(C)c2c(=O)[nH]c(-c3cc(S(=O)(=O)N4CCN(CC)CC4)ccc3OCC)nn12` [Vardenafil], the LC retention time stood at 1.08 min.

Turning to `CC(CS)C(=O)N1CCCC1C(=O)O` (stereo unspecified) [Captopril], the LC retention time is 1.1 min.

Consider `Nc1ccccc1C(=O)CC(N)C(=O)O` [L-Kynurenine], for which the LC retention time is 4.67 min.

Regarding `CSCC[C@H](NC=O)C(=O)O` [N-Formyl-L-methionine], the LC retention time was 2.34 min.

Turning to `COc1ccc(-c2coc3cc(O)ccc3c2=O)cc1` [Formononetin], the LC retention time was 0.446 min.

With `O=C(O)C(O)Cc1c[nH]c2ccccc12` (racemic) [DL-Indole-3-lactic acid], the LC retention time came out at 0.968 min.

`CN(C)C(=N)N=C(N)N` [Metformin]: the LC retention time was 3.67 min.

As for `CC(=O)C1(O)CCC2C3CC(C)C4=CC(=O)CCC4(C)C3CCC21C` (stereo unspecified) [Medroxyprogesterone], the LC retention time was 0.429 min.

Consider `Cn1c(=O)[nH]c2ncn(C)c2c1=O` [1,7-dimethylxanthine], for which the LC retention time amounted to 0.655 min.

As to `C[C@@H](O)[C@H](N)C(=O)O` [L-Threonine], the LC retention time turned out to be 6.22 min.
